Reference: US12240862B2, “Inhibitors of peptidylarginine deiminases” (Gilead Sciences, Inc., priority 2020, dated 2025)

target: T1, human PAD4 (Homo sapiens, UniProt Q9UM07); experiment: In vitro PAD4 BAEE biochemical assay; conditions: human PAD4, BAEE substrate; 5 nM PAD4, 2 mM calcium chloride, 3 mM BAEE; geometric mean of multiple experiments
T1 construct: human PAD4 (NM_012387), A2P663, was PCR amplified; His-SUMO (N, cleaved yes); made in house; host or cells: E. coli BL21(DE3)
Summary of the method: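 Ammonia generated from BAEE serves as the readout, measured by o-phthalaldehyde after EDTA termination. Final conditions: 5 nM human PAD4 (SUMO tag cleaved), 2 mM CaCl2, 3 mM BAEE, pH 7.6 MOPS buffer, 25 °C for 2 h following a 30-min compound preincubation.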

T1 sequence (Q9UM07 2-663): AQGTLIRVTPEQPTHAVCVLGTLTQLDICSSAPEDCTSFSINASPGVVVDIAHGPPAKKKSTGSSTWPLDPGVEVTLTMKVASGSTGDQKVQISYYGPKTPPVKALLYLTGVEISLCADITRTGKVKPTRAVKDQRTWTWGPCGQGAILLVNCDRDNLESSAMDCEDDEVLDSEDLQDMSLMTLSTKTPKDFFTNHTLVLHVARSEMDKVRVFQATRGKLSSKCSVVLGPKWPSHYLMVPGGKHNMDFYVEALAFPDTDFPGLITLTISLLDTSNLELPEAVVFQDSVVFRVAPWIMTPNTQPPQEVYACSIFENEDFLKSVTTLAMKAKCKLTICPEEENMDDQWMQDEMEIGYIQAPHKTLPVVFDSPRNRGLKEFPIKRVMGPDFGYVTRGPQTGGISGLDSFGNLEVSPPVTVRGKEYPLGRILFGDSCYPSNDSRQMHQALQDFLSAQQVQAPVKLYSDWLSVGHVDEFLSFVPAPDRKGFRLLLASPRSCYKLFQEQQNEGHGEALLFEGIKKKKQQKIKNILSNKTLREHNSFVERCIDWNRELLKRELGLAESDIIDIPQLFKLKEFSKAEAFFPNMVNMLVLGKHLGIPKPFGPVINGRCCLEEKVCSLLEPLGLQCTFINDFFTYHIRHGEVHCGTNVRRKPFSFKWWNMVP

Compared with `[2H]C([2H])([2H])N(c1ccc2cc(-c3nc4cc(C(=O)N5C[C@H]6CC[C@@H]5[C@@H]6N)cc(OC)n4c3C)n(CC3CC3)c2n1)S(=O)(=O)Cc1ccccc1` [Example 471, N-[2-[7-[(1R,4R,7R)-7-amino-2-azabicyclo[2.2.1]heptane-2-carbonyl]-5-methoxy-3-methyl-imidazo [1,2-a]pyridin-2-yl]-1-(cyclopropylmethyl)pyrrolo[2,3-b]pyridin-6-yl]-1-phenyl-N-(trideuteriomethyl) methanesulfonamide], `CCCO[C@@H]1CCN(C(=O)c2cc(OC)n3c(C)c(-c4cc5ccc([C@@H](C)NC(=O)c6ccccc6)nc5n4CC4CC4)nc3c2)C[C@@H]1N` [Example 111, ~{N}-[(1~{R})-1-[2-[7-[(3~{S},4~{R})-3-amino-4-propoxypiperidine-1-carbonyl]-5-methoxy-3-methylimidazo[1,2-a]pyridin-2-yl]-1-(cyclopropylmethyl)pyrrolo [2,3-b]pyridin-6-yl]ethyl] benzamide] is 4.5-fold lower in IC50: 1.36 µM for the first, 0.305 µM for the second.

First: CNC(=O)COc1ccc2cc(-c3nc4cc(C(=O)N5CCC[C@@H](N)C5)cc(OC)n4c3C)n(CC3CC3)c2n1 [Example 622, 2-[2-[7-[(3~{R})-3-aminopiperidine-1-carbonyl]-5-methoxy-3-methylimidazo[1,2-a]pyridin-2-yl]-1-(cyclopropylmethyl)pyrrolo [2,3-b]pyridin-6-yl] oxy-~{N}-methylacetamide]
Second: CCC(NC(C)=O)c1ccc2cc(-c3nc4cc(C(=O)N5CCC[C@@H](N)C5)cc(OC)n4c3C)n(CC3CC3)c2n1 (some centres unmarked) [Example 193, ~{N}-[1-[2-[7-[(3~{R})-3-aminopiperidine-1-carbonyl]-5-methoxy-3-methylimidazo [1,2-a]pyridin-2-yl]-1-(cyclopropylmethyl)pyrrolo [2,3-b]pyridin-6-yl]propyl]acetamide]
The IC50 of the first is 2.2-fold higher: 0.894 µM for the first, 0.4 µM for the second. The second is the more potent here.

Compared with `COc1cc(C(=O)N2[C@@H]3CC[C@@H](N)[C@H]2CC3)cc2nc(-c3cc4ccc([C@@H](C)NC(=O)C(C)(C)C)nc4n3CC3CC3)c(C)n12` [Example 170, ~{N}-[(1~{R})-1-[2-[7-[(1~{R},2~{R},5~{R})-2-amino-8-azabicyclo[3.2.1]octane-8-carbonyl]-5-methoxy-3-methylimidazo [1,2-a]pyridin-2-yl]-1-(cyclopropylmethyl)pyrrolo [2,3-b]pyridin-6-yl]ethyl]-2,2-dimethylpropanamide], `COc1cc(C(=O)N2[C@H]3CC[C@@H]2[C@H](N)C3)cc2nc(-c3cc4ccc([C@@H](C)NC(=O)N5CCC(C(C)(C)O)C5)nc4n3CC3CC3)c(C)n12` (some centres unmarked) [Example 203, ~{N}-[(1~{R})-1-[2-[7-[(1~{R},2~{R},4~{S})-2-amino-7-azabicyclo[2.2.1]heptane-7-carbonyl]-5-methoxy-3-methylimidazo [1,2-a]pyridin-2-yl]-1-(cyclopropylmethyl)pyrrolo [2,3-b]pyridin-6-yl]ethyl]-3-(2-hydroxypropan-2-yl) pyrrolidine-1-carboxamide] is 5-fold lower in IC50: 0.161 µM for the first, 0.0324 µM for the second.

First: CCc1ccc2cc(-c3nc4cc(C(=O)N5CCCC(NCCO)C5)cc(OC)n4c3C)n(CC3CC3)c2n1 (centres unmarked) [Example 581, [2-[1-(cyclopropylmethyl)-6-ethylpyrrolo[2,3-b]pyridin-2-yl]-5-methoxy-3-methylimidazo[1,2-a]pyridin-7-yl]-[3-(2-hydroxyethylamino)piperidin-1-yl]methanone]
Second: COc1cc(C(=O)N2[C@H]3CC[C@@H]2[C@H](N)C3)cc2nc(-c3cc4ccc(C(C)C(N)=O)nc4n3CC3CC3)c(C)n12 (some centres unmarked) [Example 545]
The IC50 of the first is 280-fold higher: 23 µM for the first, 0.0818 µM for the second. The second is the more potent here.

`CNC(=O)CC(C)c1ccc2cc(-c3nc4cc(C(=O)N5[C@H]6CC[C@@H]5[C@H](N)C6)cc(OC)n4c3C)n(CC3CC3)c2n1` (some centres unmarked) [Example 524, 3-[2-[7-[(1~{R},2~{R}, 4~{S})-2-amino-7-azabicyclo[2.2.1]heptane-7-carbonyl]-5-methoxy-3-methylimidazo[1,2-a]pyridin-2-yl]-1-(cyclopropylmethyl)pyrrolo [2,3-b]pyridin-6-yl]-~{N}-methylbutanamide] and `COc1cc(C(=O)N2[C@H]3CC[C@@H]2[C@H](N)C3)cc2nc(-c3cc4ccc([C@@H](C)NC(=O)CS(C)(=O)=O)nc4n3CC3CC3)c(C)n12` [Example 154, ~{N}-[(1~{R})-1-[2-[7-[(1~{R},2~{R},4~{S})-2-amino-7-azabicyclo[2.2.1]heptane-7-carbonyl]-5-methoxy-3-methylimidazo [1,2-a]pyridin-2-yl]-1-(cyclopropylmethyl)pyrrolo[2,3-b]pyridin-6-yl]ethyl]-2-methylsulfonylacetamide] are within 1.5-fold of each other in IC50: 0.0789 µM for the first, 0.0534 µM for the second.

Going from `COc1cc(C(=O)N2[C@H]3CC[C@@H]2[C@H](N)C3)cc2nc(-c3cc4ccc([C@@H](C)N5CCOCC5)nc4n3CC3CC3)c(C)n12` [Example 277, [(1~{R},2~{R},4~{S})-2-amino-7-azabicyclo [2.2.1]heptan-7-yl]-[2-[1-(cyclopropylmethyl)-6-[(1~{R})-1-morpholin-4-ylethyl]pyrrolo[2,3-b]pyridin-2-yl]-5-methoxy-3-methylimidazo[1,2-a]pyridin-7-yl]methanone] to `COc1cc(C(=O)N2[C@H]3CC[C@@H]2[C@H](N)C3)cc2nc(-c3cc4ccc([C@@H](C)N5C(=O)CCC5C)nc4n3CC3CC3)c(C)n12` (some centres unmarked) [Example 269, 1-[(1~{R})-1-[2-[7-[(1~{R},2~{R},4~{S})-2-amino-7-azabicyclo[2.2.1]heptane-7-carbonyl]-5-methoxy-3-methylimidazo [1,2-a]pyridin-2-yl]-1-(cyclopropylmethyl)pyrrolo [2,3-b]pyridin-6-yl]ethyl]-5-methylpyrrolidin-2-one], the IC50 falls from 0.191 µM to 0.0678 µM (2.8-fold). The second is the more potent here.

`COc1cc(C(=O)N2[C@@H]3CC[C@@H](N)[C@H]2CC3)cc2nc(-c3cc4ccc(N(C(F)F)S(C)(=O)=O)nc4n3CC3CC3)c(CC3CC3)n12` [Example 403, ~{N}-[2-[7-[(1~{R},2~{R}, 5~{R})-2-amino-8-azabicyclo[3.2.1]octane-8-carbonyl]-3-(cyclopropylmethyl)-5-methoxyimidazo [1,2-a]pyridin-2-yl]-1-(cyclopropylmethyl)pyrrolo [2,3-b]pyridin-6-yl]-~{N}-(difluoromethyl) methanesulfonamide] and `COc1cc(C(=O)N2[C@H]3CC[C@@H]2[C@H](N)C3)cc2nc(-c3cc4ccc(N(C(F)F)S(C)(=O)=O)nc4n3CC3CC3)c(CC(C)C)n12` [Example 429, ~{N}-[2-[7-[(1~{R},2~{R}, 4~{S})-2-amino-7-azabicyclo[2.2.1]heptane-7-carbonyl]-5-methoxy-3-(2-methylpropyl)imidazo[1,2-a]pyridin-2-yl]-1-(cyclopropylmethyl)pyrrolo [2,3-b]pyridin-6-yl]-~{N}-(difluoromethyl) methanesulfonamide] are within 1.5-fold of each other in IC50: 0.754 µM for the first, 0.851 µM for the second.

Compared with `COc1cc(C(=O)N[C@H]2CNCC[C@@H]2OC)cc2nc(-c3cc4ccc(N(C(F)F)S(C)(=O)=O)nc4n3CC3CC3)c(C)n12` [Example 285, 2-[1-(cyclopropylmethyl)-6-[difluoromethyl (methylsulfonyl)amino]pyrrolo[2,3-b]pyridin-2-yl]-5-methoxy-~ {N}-[(3~{S},4~{S})-4-methoxypiperidin-3-yl]-3-methylimidazo[1,2-a] pyridine-7-carboxamide], `COc1cc(C(=O)N2[C@H]3CC[C@@H]2[C@H](N)C3)cc2nc(-c3cc4ccc([C@@H](C)NC(=O)c5ccn(C)n5)nc4n3CC3CC3)c(C)n12` [Example 108, ~{N}-[(1~{R})-1-[2-[7-[(1~{R},2~{R},4~{S})-2-amino-7-azabicyclo[2.2.1]heptane-7-carbonyl]-5-methoxy-3-methylimidazo [1,2-a]pyridin-2-yl]-1-(cyclopropylmethyl)pyrrolo [2,3-b]pyridin-6-yl]ethyl]-1-methylpyrazole-3-carboxamide] is 270-fold lower in IC50: 14 µM for the first, 0.0523 µM for the second.

`COc1cc(C(=O)N2[C@H]3CC[C@@H]2[C@H](N)C3)cc2nc(-c3cc4ccc([C@@H](C)NC(=O)C(C)(C)CO)nc4n3CC3CC3)c(C3CC3)n12` [Example 86, ~{N}-[(1~{R})-1-[2-[7-[(1~{R},2~{R},4~{S})-2-amino-7-azabicyclo[2.2.1]heptane-7-carbonyl]-3-cyclopropyl-5-methoxyimidazo [1,2-a]pyridin-2-yl]-1-(cyclopropylmethyl)pyrrolo [2,3-b]pyridin-6-yl]ethyl]-3-hydroxy-2,2-dimethylpropanamide] and `COc1cc(C(=O)N2[C@H]3CC[C@@H]2[C@H](N)C3)cc2nc(-c3cc4ccc([C@@H](C)NC(=O)N5CCN(C)CC5)nc4n3CC3CC3)c(C)n12` [Example 235, ~{N}-[(1~{R})-1-[2-[7-[(1~{R},2~{R},4~{S})-2-amino-7-azabicyclo[2.2.1]heptane-7-carbonyl]-5-methoxy-3-methylimidazo [1,2-a]pyridin-2-yl]-1-(cyclopropylmethyl)pyrrolo [2,3-b]pyridin-6-yl]ethyl]-4-methylpiperazine-1-carboxamide] are within 1.5-fold of each other in IC50: 0.0578 µM for the first, 0.0636 µM for the second.

First: COc1cc(C(=O)N2[C@H]3CC[C@@H]2[C@H](N)C3)cc2nc(-c3cc4ccc(N5CCN(Cc6cccnc6)CCS5(=O)=O)nc4n3CC3CC3)c(C)n12 [Example 442, [(1~{R},2~{R},4~{S})-2-amino-7-azabicyclo [2.2.1]heptan-7-yl]-[2-[1-(cyclopropylmethyl)-6-[1,1-dioxo-5-(pyridin-3-ylmethyl)-1,2,5-thiadiazepan-2-yl]pyrrolo [2,3-b]pyridin-2-yl]-5-methoxy-3-methylimidazo [1,2-a]pyridin-7-yl] methanone]
Second: COc1cc(C(=O)N2[C@H]3CC[C@@H]2[C@H](N)C3)cc2nc(-c3cc4ccc(C5CCCCN5C(C)=O)nc4n3CC3CC3)c(C)n12 (some centres unmarked) [Example 515, 1-[2-[2-[7-[(1~{R},2~{R}, 4~{S})-2-amino-7-azabicyclo[2.2.1]heptane-7-carbonyl]-5-methoxy-3-methylimidazo[1,2-a]pyridin-2-yl]-1-(cyclopropylmethyl)pyrrolo[2,3-b]pyridin-6-yl]piperidin-1-yl] ethenone]
The IC50 of the first is 3.1-fold lower: 0.0409 µM for the first, 0.125 µM for the second.
